Laboratory results from ChEMBL document CHEMBL1129713, “Inhibitors of MMP-1: an examination of P1 C gem-disubstitution in the succinamide hydroxamate series” (Bioorg Med Chem Lett, 1996).

molecular target: T1, Interstitial collagenase (Homo sapiens, UniProt P03956); assay: Inhibition of Matrix Metallo Proteinase-1 (MMP-1)
T1 sequence (P03956 whole entry): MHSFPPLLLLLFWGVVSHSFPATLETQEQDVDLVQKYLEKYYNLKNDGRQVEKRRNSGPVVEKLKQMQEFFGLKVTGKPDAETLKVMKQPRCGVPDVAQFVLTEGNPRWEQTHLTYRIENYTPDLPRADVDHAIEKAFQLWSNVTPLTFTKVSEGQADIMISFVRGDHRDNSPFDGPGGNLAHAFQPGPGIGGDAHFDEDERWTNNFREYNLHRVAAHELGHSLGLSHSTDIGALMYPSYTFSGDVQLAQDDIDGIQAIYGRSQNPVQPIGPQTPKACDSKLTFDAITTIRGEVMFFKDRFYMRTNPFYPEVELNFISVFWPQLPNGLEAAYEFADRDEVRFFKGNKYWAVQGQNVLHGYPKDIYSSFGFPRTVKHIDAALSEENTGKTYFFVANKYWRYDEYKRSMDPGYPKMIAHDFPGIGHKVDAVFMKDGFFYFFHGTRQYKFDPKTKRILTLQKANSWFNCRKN

SMILES | IC50 [nM]
CNC(=O)[C@H](Cc1ccc(OC)cc1)NC(=O)[C@]1(CC(=O)NO)CCc2ccccc21 | 17500
CNC(=O)[C@H](Cc1ccc(OC)cc1)NC(=O)C1(CC(=O)NO)CCCCC1 | 150
CNC(=O)[C@H](Cc1ccc(OC)cc1)NC(=O)C1(CC(=O)NO)CCCC1 | 2800
CNC(=O)[C@H](Cc1ccc(OC)cc1)NC(=O)C1(CC(=O)NO)Cc2ccccc2C1 | 570
CNC(=O)[C@H](Cc1ccc(OC)cc1)NC(=O)C1(CC(=O)NO)Cc2ccccc21 (stereo in doubt; form 2) | 800
CNC(=O)[C@H](Cc1ccc(OC)cc1)NC(=O)C1(CC(=O)NO)Cc2ccccc21 (stereo in doubt; form 1) | 2200
CNC(=O)[C@H](Cc1ccc(OC)cc1)NC(=O)C(C)(CC(=O)NO)CC(C)C (stereo partly specified) | 460

Next, values leading:

IC50 [nM] | SMILES
> 30000 | CNC(=O)[C@H](Cc1ccc(OC)cc1)NC(=O)[C@@]1(CC(=O)NO)CCc2ccccc21
40 | CNC(=O)[C@H](Cc1ccc(OC)cc1)NC(=O)C(CC(=O)NO)c1ccccc1 (stereo partly specified)
770 | CNC(=O)[C@H](Cc1ccc(OC)cc1)NC(=O)C1(CC(=O)NO)CCCc2ccccc21 (stereo partly specified)
3800 | CNC(=O)[C@H](Cc1ccc(OC)cc1)NC(=O)C(C)(CC(=O)NO)c1ccccc1 (stereo partly specified)
